Assay results from US6627641B1, “Antimalarial naphthylisoquinoline alkaloids and pharmaceutical compositions and medical uses thereof” (The United States of America as represented by the …, priority 1994, dated 2003).
≈ marks a conversion by molar mass, not a printed value.

Legend:
[1] = tested on: P. falciparum (NF54 strain, clone A149); test: In vitro 3H-hypoxanthine incorporation test with P. falciparum NF 54; assay type: cell-based, Plasmodium falciparum; details: NF 54, clone A149; six repeats; max. concentration 50 or 5 μg/ml
Description: Continuous in vitro cultures of asexual erythrocytic stages of P. falciparum (strain NF 54/64, clone A1A9) were maintained following essentially the method of Trager and Jensen (Science, 193, 673-675, 1976) at 37° C. under an atmosphere of 5% CO2, 5% O2, and 90% N2. The host cells were human erythrocytes (A or O Rh+). The culture medium was RPMI 1640 (Gibco), containing HEPES (BDH; 4.57 gL^−1), glucose (Sigma; 1.54 gL^−1), 5% NaHCO3 (Merck; 34.78 mlL^−1), and gentamycin (Merck; 8.70 mlL^−1) supplemented with 10% human plasma (A Rh+). Parasites were subinoculated every 3-4 days with initial conditions of 1% parasitemia and 1% hematocrit.
(§1) In vitro testing with P. falciparum was as follows. Each compound was dissolved in DMSO at a concentration of 20 mg ml^−1. These solutions were further diluted with physiological saline to obtain a stock solution of 500 μg ml^−1. Each test substance was applied in a series of seven, 4-fold dilutions (maximum concentrations 50 or 5 μg ml^−1). Each compound was tested in 6-fold repeats. Chloroquine was tested similarly, as a positive control.
(§2) The test protocol was performed in vitro, based upon the method of Desjardins, et al. (Antimicrobial Agents Chemother., 16, 710-715, 1979). The parasites (200 μl of a suspension with initial parasitemia of 0.5% and hematocrit of 1.5%) were incubated for 24 h in microtitre plates (Falcon MicroTest III) in hypoxanthine-free medium in the presence of 25 μl of test solution. The plates contained a negative control (6 wells with non-parasitized RBC's, no drug) and a positive control (6 wells with parasitized RBC's no drug). Thereafter, 25 μl of ^3H-hypoxanthine solution (Amersham) was added (0.5 μCi well ^−1), and the parasites were incubated for a further period of 18 h. Each well was harvested with a Cell Harvester (Nunc). The filter papers were dried for 2 h at 52° C., and their radioactivity was measured by liquid scintillation counting in Optiscint HiSafe (LKB Pharmacia).
(§3) The mean results, obtained as counts per min (cpm), were expressed as percentages of incorporation or growth inhibition. The sigmoid dose-response curve was then linearized by probit analysis with the aid of software provided by IWONL (Gent), adapted by G. Timperman and used to derive the IC50 values.

P. berghei (Anka) = test: In vitro 3H-hypoxanthine incorporation test with P. berghei (Anka); assay type: cell-based, Plasmodium berghei; details: Anka strain
Description: as §1, §2, §3
For experiments with P. berghei (Anka strain), the parasites were maintained, and the in vitro tests performed essentially the same as above, except for the following modification. In the case of tests using P. berghei, the parasites were incubated in the same conditions as for P. falciparum (above) except that the incubations were started immediately in the presence of the ^3H-hypoxanthine and for 24 hour total duration (i.e., no delay in the addition of the ^3H-hypoxanthine). As before, the incorporated radioactivity was used as a-measure for parasite growth.

[2] = tested on: P. falciparum (K1 strain); test: In vitro 3H-hypoxanthine incorporation test with chloroquine-resistant P. falciparum K1; assay type: cell-based, Plasmodium falciparum
Description: Selected compounds were also tested against drug-resistant parasites. The method was the same as above except for the following modifications. The parasite used was the chloroquine-resistant strain, K1, maintained essentially according to Desjardins, et al. (supra, 1979). The culture medium was RPMI-1640 containing TES (Sigma; 7.64 gL^−1), glucose (BDH; 1.67 gL^−1), NaHCO3 (BDH; 1.94 gL^−1), and gentamycin (Nicholas; 30 mgL^−1) supplemented with 10% human serum (A RH+). Parasites were subinoculated every 3-4 days with initial conditions of 1% parasitemia and 2.5% hematocrit. For the testing, small aliquots of test material were dissolved in 20 μl EtOH and RPMI 1640 to give solutions of 1 or 10 mg ml^−1. Each was applied in a series of twelve, […] dilutions (final […] ranging from 50 to 1.19×10^−3 μg ml^−1). Chloroquine diphosphate (Sigma) was used in the same experiments as a reference and also in twelve, 4-fold dilutions (final concentrations 2×10^−5-1.19×10^−12M). Each compound was tested in duplicate.
Testing was performed in vitro based upon the method of Desjardins, et al (supra, 1979), as modified by O'Neill, et al. (Planta Med., 51, 394-399, 1985) and Ekong, et al. (Biochem. Pharmacol., 40, 297-301, 1990). The parasites (50 μl initial parasitemia of 1%, hematocrit of 5%) were incubated for 24 h in microtitre plates (Nunc) in normal (not hypoxanthine-depleted) medium in the presence of 50 μl of test solution. Controls were set up in each test by preparing 12-24 wells with non-parasitized RBC's and no test solution and 12-24 wells with parasitized RBC's and no test compound. Thereafter, 5 μl all of ^3H-hypoxanthine (Amersham) were added (0.2 μCi well ^−1), and the parasites incubated for a further period of 18 h. Each well was harvested with a Cell Harvester (Skatron). Glass fibre filters were dried briefly. Radioactivity was measured by liquid scintillation counting in Ecoscint (National Diagnostics).
The results obtained as cpm were expressed as percentages of incorporation of growth inhibition. The dose-related part of the sigmoidal curves obtained were linearized by regression analysis with the aid of software developed by S. Grant (I.SHTM) and used to calculate the IC50 values.

[3] = tested on: Plasmodium berghei (Anka strain); test: In vivo antimalarial test in OF1 mice inoculated with P. berghei; details: 50 mg/kg oral on days 0, 1, 2, 3, OF1 mice; for Parasitemia (%) from blood smears at day 4: N=6
Description: Outbred, female, six-week-old OF1 mice (six mice per group treated and nontreated [control]) were inoculated intraperitoneally on day 0 with 10^6 P. berghei (Anka strain) blood forms. Two hours later, they were administered orally 50 mg/kg of dioncopeltine A or dioncophylline B. A second, third, and fourth treatment (50 mg/kg each) was given after 24, 48 and 72 h, respectively (days 1, 2, and 3). […] The parasitemia (%) in the control (not drug-treated) group was 3.50 (range 3.02-3.97; N=6). In the dioncopeltine A treated group, the parasitemia was 0.03 (range 0.01-0.06; N=6); in the dioncophylline B treated group, the parasitemia was […] (range 0.66-3.07; N=6).
The in vivo antimalarial testing was performed as described above, except that more doses and different treatment schedules were employed, as described in Tables 3 and 4.

| Compound | IC50 P. falciparum NF54 strain [1] [µg/mL] | IC50 P. berghei, Anka (P. berghei (Anka)) [µg/mL] | IC50 P. falciparum, K1 strain [2] [µg/mL] | Signs of toxicity or other side effects [3] | Parasitemia (%) from blood smears at day 4 [3] [%] |
| --- | --- | --- | --- | --- | --- |
| 6-O-demethyl-8-O-methyl-7-epi-ancistrobrevine C | 10.326 | – | – | – | – |
| 6-deoxy-N-methyl-ancistrocladine | 10.079 | – | – | – | – |
| 7-epi-dioncophylline A | 0.190 | – | – | – | – |
| COc1cccc2c(-c3ccc4c(c3O)C(C)N(C)C(C)C4)c(C)cc(OC)c12 (single isomer, unassigned) [N-methyl-dioncophylline A (atropisomers)] | 17.411 (≈ 44.5 µM) | – | – | – | – |
| COc1c(-c2c(C)cc(OC)c3c(O)cccc23)ccc2c1C(C)NC(C)C2 (stereo not drawn) [8-O-methyl-5′-O-demethyl-7-epi-dioncophylline A] | 1.584 (≈ 4.2 µM) | 4.580 (≈ 12.1 µM) | – | – | – |
| COc1c(C)nc(C)c2c(OC)c(-c3c(C)cc(OC)c4c(OC)cccc34)ccc12 [(±)-dioncophyllacine A] | 17.571 (≈ 42.1 µM) | – | – | – | – |
| COc1cc2c(c(OC)c1-c1ccc(OC)c3c(OC)cc(C)cc13)[C@@H](C)N(C)[C@@H](C)C2 [Ancistrobrevine A] | 19.336 (≈ 44.4 µM) | – | – | – | – |
| COc1cc(O)c(-c2c(C)cc(OC)c3c(OC)cccc23)c2c1[C@H](C)N[C@@H](C)C2 [Ancistrocladine] | 18.353 (≈ 45 µM) | >50 | 25.350 (≈ 62.2 µM) | – | – |
| COc1cc(CO)c(-c2ccc3c(c2O)[C@@H](C)N[C@H](C)C3)c2cccc(O)c12 [Dioncopeltine A] | 0.021 (≈ 0.0553 µM) | 0.038 (≈ 0.1 µM) | 0.330 (≈ 0.87 µM) | In neither of the treated groups were any signs of toxicity or other side effects observed | 0.03 |
| COc1cccc2c(-c3ccc4c(c3O)[C@@H](C)N[C@H](C)C4)c(C)cc(OC)c12 [Dioncophylline A] | 1.443 (≈ 3.82 µM) | 0.961 (≈ 2.55 µM) | 0.860 (≈ 2.28 µM) | – | – |
| COc1cc(C)cc2ccc(-c3ccc4c(c3O)[C@@H](C)N[C@H](C)C4)c(O)c12 [Dioncophylline B] | 0.224 (≈ 0.616 µM) | 0.228 (≈ 0.627 µM) | 0.063 (≈ 0.173 µM) | – | 1.86 |
